{"source": "paper PMC10158761", "about": "“Screening of an annexin‐A2‐targeted heptapeptide for pancreatic adenocarcinoma localization” (Molecular Oncology, 2022)", "key": {"[1]": {"tested_on": "PANC‐1 cells", "assay": "Fluorescence imaging of PANC‐1 cells with labelled YW7 probes", "assay_type": "cell-based, human", "settings": "1, 2, 4 μM, 1 h; red filter 700–780 nm", "protocol": "(§1) PANC‐1 and HPDE6‐C7 cells were seeded in six‐well plates at a density of 3 × 10^5 cells·mL^−1 and incubated overnight. The cells were incubated with 25 μM FITC‐YW7 for 30 min and 1 h for flow cytometry analysis of bound and internalized peptide, and cells were incubated with 1, 2, 4 μM FITC‐YW7 or Cy7‐YW7 for 1 h for fluorescence imaging of the live cells. Cells were washed with PBS three times and centrifuged for 5 min after 37 °C incubation. Si‐ANXA2‐ or si‐NC‐transfected PANC‐1 cells were detached with nonenzymatic dissociation solution from six‐well plates. 20 μM FITC‐YW7 was added to the suspended cells and incubated at 37 °C for 15 min. Cells were washed with PBS and centrifuged for 5 min repeating three times. The supernatant was then discarded and the cells were resuspended in PBS. Percent of total cells with fluorescent signals was determined by flow cytometry using a FACSCelesta flow cytometer (BD Biosciences, San Jose, CA, USA). Fluorescence intensity was quantified by an imaging system (Berthold LB983, Bad Wildbad, Sttugart, Germany).\n(§2) Supplementary file MOL2-17-872-s002.tif: Fig. S3. Fluorescent‐labeled YW7 probes imaging in vitro. […] P values were determined using paired Student's t‐test. *P < 0.05 versus HPDE6‐C7 (Cy7‐YW7); ^# P < 0.05, ^## P < 0.01 versus PBS; ^$ P < 0.05, ^$$ P < 0.01 versus Cy7. […]"}, "[2]": {"tested_on": "PANC‐1 and HPDE6‐C7 cells", "assay": "Fluorescence imaging, PANC‐1 versus HPDE6‐C7 cells", "assay_type": "cell-based, human", "protocol": "as §1, §2"}, "[3]": {"tested_on": "PANC‐1 xenograft tumors", "assay": "In vivo NIRF imaging of PANC‐1 xenograft mice", "design": "species or system mouse (BALB/c nude)", "source_text": "During imaging, mice were anesthetized with 2% isoflurane."}, "[4]": {"tested_on": "ANXA2 (purified recombinant)", "assay": "ANXA2 affinity column binding with LC/MS detection", "settings": "ANXA2 0.7 mg on CNBr‐activated Sepharose; 1 mg YW7; 1 h at 4 °C; UPLC‐G2XS‐QTOF/MS", "protocol": "To prepare the ANXA2‐immobilized affinity column, CNBr‐activated Sepharose (GE Healthcare Bio‐Sciences AB, Uppsala, Sweden) was swelled by 1 mM HCl and coupling buffer. Purified recombinant ANXA2 of 0.7 mg was loaded onto the resin and incubated at 4 °C overnight. After blocking with ethanolamine, the resin was washed with 50 mM Tris–HCl (pH 8.0) and 50 mM Glycine‐0.5 M NaCl (pH 4.0) buffers alternatively for three rounds. Then, the resin was washed with PBS and 1 mg YW7 dissolved in DEPC was added to the ANXA2‐loaded resin. After binding for 1 h at 4 °C, the resin was washed again with 50 mM Tris–HCl (pH 8.0) and 50 mM Glycine‐0.5 M NaCl (pH 4.0) buffers. Eluents were eventually mixed with 50% acetonitrile and analyzed by UPLC‐G2XS‐QTOF/MS (Waters, Milford, MA, USA)."}, "[5]": {"tested_on": "ANXA2", "assay": "siRNA knockdown of ANXA2 in PANC‐1 cells (western blotting, qPCR)", "assay_type": "cell-based, human", "settings": "48 h after transfection, lipofectamine 3000; n = 3", "protocol": "ANXA2 expression in human cells and patients' tissues was determined by western blotting. Cells were lysed on ice in RIPA Lysis Buffer (Beyotime, Shanghai, China) with 1% PMSF for 30 min. Fresh tissues were suspended in RIPA Lysis Buffer with 1% PMSF, homogenized for 2 min, and then lysed on ice for another 30 min. The supernatant was collected and the protein concentration was determined after centrifuging for 10 min at 8000 g . The protein concentration was detected by BCA Protein Assay Kit (Beyotime). Proteins extracts were separated by 12% SDS/PAGE gel and then transferred to the PVDF membranes. Next, the membranes were blocked with 5% skimmed milk powder at room temperature for 1 h. Rabbit primary antibodies specific to ANXA2 (1 : 1000; Cell Signaling Technology, Billerica, CA, USA; #8235S) were used to incubate the membranes at 4 °C overnight. Anti‐β‐tubulin mouse primary antibodies (1 : 5000; EarthOx Life Science, Millbrae, CA, USA; E021040‐01) were applied as a loading control. […] The band density was quantified by IMAGEJ software (National Institutes of Health, Bethesda, MD, USA).\nSmall interfering RNA (primer sequences: forward 5′‐[…]‐3′ and reverse 5′‐[…]‐3′) was used to downregulate the expression of ANXA2 (si‐ANXA2). […] Knockdown efficiency was evaluated by western blotting and quantitative real‐time PCR. […]"}, "[6]": {"target": "T1, GST-fused ANXA2 recombinant protein (UniProt P07355 1-339)", "T1 construct": "product of 62 kD with GST; No cleavage of GST is described; The size of 62 kD would fit whole ANXA2 (36 kD) plus GST; also called GST-ANXA2; annexin A2; source: E. coli BL21 (DE3), purified (GST tag purification resin)", "T1 sequence (P07355 whole entry, the tested form may be a part)": "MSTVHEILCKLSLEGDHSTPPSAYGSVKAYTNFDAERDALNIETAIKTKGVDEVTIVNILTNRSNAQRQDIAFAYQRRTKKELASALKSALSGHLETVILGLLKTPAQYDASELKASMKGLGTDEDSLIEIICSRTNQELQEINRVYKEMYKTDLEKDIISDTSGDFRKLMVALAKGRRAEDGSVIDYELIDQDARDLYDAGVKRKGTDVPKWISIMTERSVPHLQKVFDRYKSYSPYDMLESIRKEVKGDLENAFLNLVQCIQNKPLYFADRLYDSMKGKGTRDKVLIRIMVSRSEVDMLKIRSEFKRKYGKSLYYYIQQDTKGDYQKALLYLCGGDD", "assay": "MST; FITC-YW7 at constant concentration, unlabeled ANXA2 diluted in a gradient; MST buffer with 0.05% Tween-20; Monolith NT.115, standard capillaries; apparent KD", "settings": "both partners purified"}, "[7]": {"target": "T2, ANXA2 on pancreatic cells (human (endogenous in PANC-1 and …, UniProt P07355 1-339))", "T2 construct": "annexin A2, endogenous in the human pancreatic cancer cell line PANC-1 and the normal human pancreatic ductal cell line HPDE6-C7; which cell line was used is told in each assay's format; also called annexin A2; source: endogenous, on PANC-1 cells; endogenous, on HPDE6-C7 cells", "T2 sequence (P07355 whole entry)": "as the sequence (P07355 whole entry, the tested form may be a part) above", "assay": "other fluorescence titration; PANC-1 cells suspended in FITC-YW7 (0-1.5 μM), 37 °C, 30 min; washed with PBS; fluorescence of the cells read in a plate reader (490/518 nm); apparent Kd", "settings": "one partner purified"}}, "note": "“Also recorded” adds a separate entry of the source. Primed or numbered codes have the meaning given here. Where no end group is shown, it is not given here. The star is where a group is joined. FITC = O=C1OC2(c3ccc(O)cc3Oc3cc(O)ccc32)c2ccc(NC(=S)*)cc21; PEG3′ = not defined here; Ahx = NCCCCCC(=O)O"}
{"molecule": "Cy7‐YW7: Cy7 linked to the N terminal of YW7 peptide via spacer of PEG3; NIRF probe ({Cy7-PEG3′}-YWRGVYN)", "values": [{"measurement": "internalization by PANC‐1 cells, concentration dependence", "setting": "[1]", "result": "preferred to be internalized by PANC‐1 cells in a dose‐dependent manner"}, {"measurement": "fluorescence signal, PANC‐1 versus HPDE6‐C7", "setting": "[2]; 4 μM in PBS", "result": "stronger fluorescence signal of Cy7‐YW7 was detected after internalization into PANC‐1 cells compared to HPDE6‐C7"}, {"measurement": "uptake in PANC‐1 compared to HPDE6‐C7 cells", "setting": "[2]; summary statement of abstract", "result": "significantly higher uptake in PANC‐1 cells"}, {"measurement": "TBR, as quoted in discussion", "setting": "[3]; 8 nmol i.v.", "result": "~ 2.7"}, {"measurement": "earliest time of significant tumor‐to‐background contrast", "setting": "[3]; 8 nmol i.v.", "result": 1, "unit": "h"}, {"measurement": "tumor‐to‐background ratio (TBR)", "setting": "[3]; 8 nmol i.v., 2.5 h after injection, n = 4, mean ± SD, P < 0.05 Cy7‐YW7 vs Cy7", "result": "2.7 ± 0.6"}, {"measurement": "tumor fluorescence / contrast", "setting": "[3]; 8 nmol i.v., Cy7‐YW7 versus Cy7, n = 4", "result": "stronger fluorescence signals in tumor tissues; also recorded: higher than Cy7; also recorded: enhanced tumor sensitivity and specificity from 1 h after injection"}, {"measurement": "time of highest TBR after injection", "setting": "[3]; 8 nmol i.v., images at 0, 1, 2, 2.5, 3 h", "result": 2.5, "unit": "h"}, {"measurement": "TBR compared to Cy7 alone", "setting": "[3]; intravenous injection, in abstract", "result": "~ 2.7 ‐fold"}]}
{"molecule": "YWRGVYN [YW7]", "values": [{"measurement": "binding to ANXA2 column", "setting": "[4]", "result": "eluted from ANXA2‐loading column after incubation with ANXA2 recombinant protein for 1 h and identified"}]}
{"molecule": "si‐ANXA2: Small interfering RNA, forward 5′‐AGACCAAAGGUGUGGAUGAUU‐3′ and reverse 5′‐UCAUCCACACCUUUGGUCUUU‐3′ (chemistry not fully specified)", "values": [{"measurement": "ANXA2 protein and mRNA level after knockdown", "setting": "[5]", "result": "Downregulated ANXA2 relative protein (D, E) and mRNA (F) levels"}]}
{"molecule": "{FITC-Ahx}-YWRGVYN (heptapeptide YW7 selected from the Ph.D.-7 phage display library; also called FITC-YW7; source: synthetic peptide, Sangon Biotech)", "note": "[FITC-labeled YW7]", "values": [{"measurement": "Kd", "setting": "[6]", "result": 12, "unit": "µM"}, {"measurement": "Kd", "setting": "[7]", "result": 0.0866, "unit": "µM"}]}
